Laboratory results reported in publication PMC6193938, “Characterization of a novel AICARFT inhibitor which potently elevates ZMP and has anti-tumor activity in murine models” (Scientific Reports, 2018).
Like-named read-outs stand apart in the source and are kept apart here.

How the values were obtained:
MDA-MB-231 = assay: In vitro proliferation assay, Cell Titer Glo; assay type: cell-based; details: Homo sapiens
Description: Cell Titer Glo measures ATP, thus the IC50s represent both the effect on purine production and cell proliferation, which are related. […] Folates are actively taken up in cells by reduced folate carrier (SLC19A1), proton-coupled folate transporter (SLC46A1), and the FOLR1 folate receptor[17]. Once inside the cell, folates are trapped by polyglutamation catalyzed by folylpolyglutamate synthetase (FPGS). […] Gene expression data for ATIC, GART, APRT, HPRT, FOLR1, SLC19A1, SLC46A1 & FPGS are shown in Fig. 2, since these genes were anticipated to predict sensitivity. […] The MDA-MB-231 cell line is reduced folate carrier (SLC19A1) negative due to epigenetic silencing.
(§1) Cells were cultured using recommended culture conditions unless noted otherwise (Supplemental Table 3). Cells were plated, dosed with compound and incubated at 37 °C for approximately 2 doubling times as determined for each cell line. Cell Titer Glo (Promega) assay was used to measure proliferation according to manufacturer’s recommendations by measuring luminescence with Flexstation3 (Molecular Devices) with 500 ms integration time. […] The % response was fit to a four-parameter logistic equation using ACTIVITYBASE 4.0 to determine the absolute IC50 values.

SIK = target: T1, SIK (Homo sapiens, UniProt P57059); assay: CEREP protein kinase assay; assay type: biochemical
T1 construct: purchased CEREP Panlabs (Eurofins)

NCI-H1437 (lung) = assay: Low folate & high folate in vitro proliferation assay (Alamar Blue); assay type: cell-based; details: Homo sapiens
Description: (§2) Cells lines were acquired from cell banks, see supplemental material, grown using the cell banks recommended culture conditions (Supplemental Table 3). In some experiments noted “low folate” the cells were washed and grown in folate free RPMI-1640 media (Gibco #27016-021) supplemented with 5 ml 1 M Hepes, 5 ml 100 mM Na pyruvate, 2.5 mg/ml glucose and 10% defined FBS (Hyclone #SH30070) per 500 mL media for 5–7 days to deplete intracellular folate levels prior to the start of the experiment. Where noted, cells were maintained in complete “high folate” RPMI-1640 media (ATCC #30-2001) with 10% defined FBS to contrast with the low folate conditions.
as §1
(§3) For a limited number of cell lines, compound dosing was performed under high or low folate conditions with cell viability being determined with Alamar Blue rather than an ATP dependent assay. Cells were plated and treated as described above. Proliferation was measured using Alamar Blue Cell Viability Reagent (Invitrogen), and read after approximately 1.5–4 hours incubation at 37 °C on the Envision plate reader (Perkin Elmer) with excitation at 570 nm and emission at 585 nm. The % inhibition for each sample was calculated and fit as described above.

SW620 (colon) = assay: as above; assay type: cell-based; details: Homo sapiens
Description: as §2, §1, §3

SNU-16 (gastric) = assay: as above; assay type: cell-based; details: Homo sapiens
Description: as §2, §1, §3

NCI-H1299 = assay: as above; assay type: cell-based; details: Homo sapiens
Description: as §2, §1, §3

A101D (melenoma) = assay: as above; assay type: cell-based; details: Homo sapiens
Description: as §2, §1, §3

NCI-H1993 (lung) = assay: as above; assay type: cell-based; details: Homo sapiens
Description: as §2, §1, §3

HCT 116 (colon) = assay: as above; assay type: cell-based; details: Homo sapiens
Description: as §2, §1, §3

MIA PaCa-2 (pancreas) = assay: as above; assay type: cell-based; details: Homo sapiens
Description: as §2, §1, §3

MDA-MB-231 (mammary) = assay: as above; assay type: cell-based; details: Homo sapiens
Description: as §2, §1, §3

A549 (lung) = assay: as above; assay type: cell-based; details: Homo sapiens, low folate RPMI media
Description: as §2, §1, §3

NCI-H1155 (lung) = assay: as above; assay type: cell-based; details: Homo sapiens
Description: as §2, §1, §3

DRAK1 = target: T2, DRAK1 (Homo sapiens, UniProt Q9UEE5); assay: CEREP protein kinase assay; assay type: biochemical
T2 construct: purchased CEREP Panlabs (Eurofins)
T2 sequence (Q9UEE5 1-414): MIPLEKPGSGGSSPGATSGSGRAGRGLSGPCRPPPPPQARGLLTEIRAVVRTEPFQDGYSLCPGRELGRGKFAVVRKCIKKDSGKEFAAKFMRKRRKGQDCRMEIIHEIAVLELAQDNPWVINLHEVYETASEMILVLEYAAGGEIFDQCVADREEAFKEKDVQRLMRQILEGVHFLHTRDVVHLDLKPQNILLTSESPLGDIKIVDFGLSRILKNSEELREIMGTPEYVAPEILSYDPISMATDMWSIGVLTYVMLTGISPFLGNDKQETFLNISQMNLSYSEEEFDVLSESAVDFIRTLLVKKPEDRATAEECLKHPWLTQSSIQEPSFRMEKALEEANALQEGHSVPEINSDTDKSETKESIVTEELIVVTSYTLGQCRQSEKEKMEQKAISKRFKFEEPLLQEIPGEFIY

RON = target: T3, RON (Homo sapiens, UniProt Q04912); assay: CEREP protein kinase assay; assay type: biochemical
T3 construct: purchased CEREP Panlabs (Eurofins)

WEE1 = target: T4, WEE1 (Homo sapiens, UniProt P30291); assay: CEREP protein kinase assay; assay type: biochemical
T4 construct: purchased CEREP Panlabs (Eurofins)

CDK1 = target: T5, CDK1 (Homo sapiens, UniProt P06493); assay: CEREP protein kinase assay; assay type: biochemical
T5 construct: purchased CEREP Panlabs (Eurofins)

ABL = target: T6, ABL (Homo sapiens, UniProt P00519); assay: CEREP protein kinase assay; assay type: biochemical
T6 construct: purchased CEREP Panlabs (Eurofins)

MET = target: T7, MET (Homo sapiens, UniProt P08581); assay: CEREP protein kinase assay; assay type: biochemical
T7 construct: purchased CEREP Panlabs (Eurofins)

[1] = RPMI media, read-out: Alamar Blue GI50 Regular folate
[2] = low folate RPMI media, read-out: Alamar Blue GI50 Low folate

T4 sequence (P30291 whole entry): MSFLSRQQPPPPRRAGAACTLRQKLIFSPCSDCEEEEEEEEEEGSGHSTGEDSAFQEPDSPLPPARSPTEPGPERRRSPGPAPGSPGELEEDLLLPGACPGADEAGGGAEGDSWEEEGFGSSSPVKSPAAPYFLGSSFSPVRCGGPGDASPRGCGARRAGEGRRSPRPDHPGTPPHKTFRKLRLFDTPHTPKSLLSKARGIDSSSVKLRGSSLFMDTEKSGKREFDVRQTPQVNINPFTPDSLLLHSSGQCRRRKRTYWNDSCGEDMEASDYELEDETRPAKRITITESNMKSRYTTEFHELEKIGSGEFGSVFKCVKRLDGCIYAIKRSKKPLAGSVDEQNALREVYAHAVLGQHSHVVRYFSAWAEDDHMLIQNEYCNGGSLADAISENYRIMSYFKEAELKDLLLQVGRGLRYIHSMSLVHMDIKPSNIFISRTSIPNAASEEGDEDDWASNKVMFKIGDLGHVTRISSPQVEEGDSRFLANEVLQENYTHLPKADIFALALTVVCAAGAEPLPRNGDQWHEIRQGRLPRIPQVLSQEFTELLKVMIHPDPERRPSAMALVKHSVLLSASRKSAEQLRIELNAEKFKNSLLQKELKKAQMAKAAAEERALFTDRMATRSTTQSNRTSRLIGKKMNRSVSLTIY
T3 sequence (Q04912 25-1400): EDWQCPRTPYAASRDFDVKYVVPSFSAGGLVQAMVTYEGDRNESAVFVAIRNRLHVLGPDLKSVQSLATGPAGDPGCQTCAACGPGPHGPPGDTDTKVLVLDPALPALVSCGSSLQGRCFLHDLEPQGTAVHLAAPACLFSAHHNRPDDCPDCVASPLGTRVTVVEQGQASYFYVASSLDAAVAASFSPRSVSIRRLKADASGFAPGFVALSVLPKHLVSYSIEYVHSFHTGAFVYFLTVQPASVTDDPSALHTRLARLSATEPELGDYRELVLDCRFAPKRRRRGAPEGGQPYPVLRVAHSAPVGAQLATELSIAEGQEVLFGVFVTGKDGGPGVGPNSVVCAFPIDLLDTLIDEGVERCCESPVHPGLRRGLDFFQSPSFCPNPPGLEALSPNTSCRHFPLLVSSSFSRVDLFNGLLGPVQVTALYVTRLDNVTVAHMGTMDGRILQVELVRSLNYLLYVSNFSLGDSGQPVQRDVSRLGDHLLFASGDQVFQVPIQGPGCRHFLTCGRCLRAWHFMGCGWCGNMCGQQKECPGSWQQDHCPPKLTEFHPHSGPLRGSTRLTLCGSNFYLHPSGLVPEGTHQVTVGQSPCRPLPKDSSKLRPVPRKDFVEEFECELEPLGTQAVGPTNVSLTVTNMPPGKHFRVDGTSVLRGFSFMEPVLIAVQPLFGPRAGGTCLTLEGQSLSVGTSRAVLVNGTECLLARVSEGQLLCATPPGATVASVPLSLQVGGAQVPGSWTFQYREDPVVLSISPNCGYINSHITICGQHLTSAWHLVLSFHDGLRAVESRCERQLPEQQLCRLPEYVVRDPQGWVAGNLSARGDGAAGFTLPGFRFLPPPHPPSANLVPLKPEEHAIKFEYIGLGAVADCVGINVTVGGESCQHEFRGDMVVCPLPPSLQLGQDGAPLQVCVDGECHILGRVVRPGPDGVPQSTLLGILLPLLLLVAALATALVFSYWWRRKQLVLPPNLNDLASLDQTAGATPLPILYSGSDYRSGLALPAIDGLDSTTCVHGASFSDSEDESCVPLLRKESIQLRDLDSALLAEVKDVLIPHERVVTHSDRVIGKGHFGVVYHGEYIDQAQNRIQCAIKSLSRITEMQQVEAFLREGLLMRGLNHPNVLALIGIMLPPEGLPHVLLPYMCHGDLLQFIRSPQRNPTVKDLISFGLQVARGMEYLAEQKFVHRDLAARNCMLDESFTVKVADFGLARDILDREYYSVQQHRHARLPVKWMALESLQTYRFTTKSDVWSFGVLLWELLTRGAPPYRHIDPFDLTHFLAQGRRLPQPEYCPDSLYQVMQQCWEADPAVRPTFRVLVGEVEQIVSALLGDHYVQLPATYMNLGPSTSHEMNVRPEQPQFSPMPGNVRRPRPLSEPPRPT
T6 sequence (P00519 whole entry): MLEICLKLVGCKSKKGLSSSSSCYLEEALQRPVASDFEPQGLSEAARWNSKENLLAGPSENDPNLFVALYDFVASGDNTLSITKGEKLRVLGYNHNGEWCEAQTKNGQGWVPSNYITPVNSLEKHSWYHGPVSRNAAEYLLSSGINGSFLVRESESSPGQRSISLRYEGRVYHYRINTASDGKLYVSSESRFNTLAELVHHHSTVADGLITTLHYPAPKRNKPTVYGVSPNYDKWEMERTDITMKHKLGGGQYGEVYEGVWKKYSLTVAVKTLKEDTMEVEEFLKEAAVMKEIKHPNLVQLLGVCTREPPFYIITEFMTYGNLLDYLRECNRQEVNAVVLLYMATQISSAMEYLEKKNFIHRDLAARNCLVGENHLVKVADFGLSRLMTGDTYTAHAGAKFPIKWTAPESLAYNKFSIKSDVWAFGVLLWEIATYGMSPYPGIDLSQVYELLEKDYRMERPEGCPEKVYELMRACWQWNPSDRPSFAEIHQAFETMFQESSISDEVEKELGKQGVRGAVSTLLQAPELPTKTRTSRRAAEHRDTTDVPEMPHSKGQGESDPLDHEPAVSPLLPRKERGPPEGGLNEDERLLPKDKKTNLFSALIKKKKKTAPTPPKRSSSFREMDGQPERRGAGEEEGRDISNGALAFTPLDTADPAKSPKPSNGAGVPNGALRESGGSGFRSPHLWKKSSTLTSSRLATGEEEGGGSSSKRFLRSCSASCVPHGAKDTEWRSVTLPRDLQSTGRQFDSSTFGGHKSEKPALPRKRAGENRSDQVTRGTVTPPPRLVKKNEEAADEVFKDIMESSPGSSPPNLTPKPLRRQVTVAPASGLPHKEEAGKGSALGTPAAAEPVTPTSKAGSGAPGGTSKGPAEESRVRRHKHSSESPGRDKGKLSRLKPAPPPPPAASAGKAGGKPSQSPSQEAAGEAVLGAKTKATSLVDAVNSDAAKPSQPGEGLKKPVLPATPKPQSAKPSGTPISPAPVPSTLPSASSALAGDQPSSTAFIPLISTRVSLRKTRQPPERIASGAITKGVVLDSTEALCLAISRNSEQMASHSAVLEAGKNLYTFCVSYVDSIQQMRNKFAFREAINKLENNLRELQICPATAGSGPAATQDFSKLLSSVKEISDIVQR
T1 sequence (P57059 whole entry): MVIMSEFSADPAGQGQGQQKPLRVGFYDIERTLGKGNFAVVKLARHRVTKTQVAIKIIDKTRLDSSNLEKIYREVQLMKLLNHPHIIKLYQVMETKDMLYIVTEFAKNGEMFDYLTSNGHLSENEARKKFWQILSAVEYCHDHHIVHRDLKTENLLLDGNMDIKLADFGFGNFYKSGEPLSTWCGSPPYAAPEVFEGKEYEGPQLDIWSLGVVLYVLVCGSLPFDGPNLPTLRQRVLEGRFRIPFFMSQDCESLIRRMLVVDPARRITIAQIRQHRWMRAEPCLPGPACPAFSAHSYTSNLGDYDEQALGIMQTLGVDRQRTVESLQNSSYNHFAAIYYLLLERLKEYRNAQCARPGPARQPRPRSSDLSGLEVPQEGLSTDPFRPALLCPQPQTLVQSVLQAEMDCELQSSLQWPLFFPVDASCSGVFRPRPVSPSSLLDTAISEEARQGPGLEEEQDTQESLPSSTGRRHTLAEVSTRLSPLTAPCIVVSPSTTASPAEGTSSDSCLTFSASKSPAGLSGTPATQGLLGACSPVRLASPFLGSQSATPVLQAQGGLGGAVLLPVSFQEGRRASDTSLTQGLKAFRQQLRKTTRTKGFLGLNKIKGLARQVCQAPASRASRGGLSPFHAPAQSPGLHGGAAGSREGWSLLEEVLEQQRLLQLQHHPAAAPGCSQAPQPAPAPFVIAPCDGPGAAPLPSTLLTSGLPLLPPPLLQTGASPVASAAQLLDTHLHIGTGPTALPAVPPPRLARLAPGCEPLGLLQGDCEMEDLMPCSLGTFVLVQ
T5 sequence (P06493 whole entry): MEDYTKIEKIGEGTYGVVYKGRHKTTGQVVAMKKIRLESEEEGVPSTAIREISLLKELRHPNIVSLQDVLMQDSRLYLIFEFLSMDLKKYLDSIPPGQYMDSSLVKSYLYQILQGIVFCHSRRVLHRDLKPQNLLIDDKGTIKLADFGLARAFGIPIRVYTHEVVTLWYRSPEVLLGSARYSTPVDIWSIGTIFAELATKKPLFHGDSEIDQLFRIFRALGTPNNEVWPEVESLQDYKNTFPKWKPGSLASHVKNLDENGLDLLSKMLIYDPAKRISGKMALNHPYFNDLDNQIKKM
T5 sequence (P14635 whole entry partner): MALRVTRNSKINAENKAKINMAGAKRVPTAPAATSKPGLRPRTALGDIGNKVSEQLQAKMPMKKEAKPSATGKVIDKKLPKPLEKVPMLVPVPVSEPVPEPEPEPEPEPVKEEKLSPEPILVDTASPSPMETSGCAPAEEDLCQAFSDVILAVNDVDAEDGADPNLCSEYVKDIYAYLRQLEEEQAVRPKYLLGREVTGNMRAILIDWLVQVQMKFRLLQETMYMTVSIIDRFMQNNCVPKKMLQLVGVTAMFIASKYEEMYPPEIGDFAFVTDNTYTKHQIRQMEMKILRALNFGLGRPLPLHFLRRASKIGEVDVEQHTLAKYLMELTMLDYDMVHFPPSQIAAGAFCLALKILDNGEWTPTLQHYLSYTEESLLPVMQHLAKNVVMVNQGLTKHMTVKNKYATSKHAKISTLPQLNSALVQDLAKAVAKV

Molecule `O=c1[nH]ccc2cc(F)c(NS(=O)(=O)c3ccc(N4CC[C@@H](O)C4)s3)cc12` [LSN3213128, N-(6-Fluoro-1-oxo-1,2-dihydroisoquinolin-7-yl)-5-[(3R)-3-hydroxypyrrolidin-1-yl]thiophene-2-sulfonamide] has an IC50 (MDA-MB-231; MDA-MB-231, breast, read-out: ABS_IC50_VALUE) of 20 nM, an IC50 (MDA-MB-231; MDA-MB-231, Cell Titer Glo, two doubling times, read-out: IC50 by CTG) of 7.6 nM and an inhibition at 0.2 µM (SIK; @ 0.2 uM) of -1.42%. The inhibition at 2 µM (SIK; @ 2 uM) was 3.69%, the inhibition at 20 µM (SIK; @ 20 uM) was 3.12% and the GI50 (NCI-H1437 (lung); [1]) was 1880 ± 894 nM. The GI50 (NCI-H1437 (lung); [2]) was 0.73 nM, the GI50 (SW620 (colon); SW-620, RPMI media, read-out: Alamar Blue GI50 Regular folate) was 3910 ± 3240 nM and the GI50 (SW620 (colon); SW-620, low folate RPMI media, read-out: Alamar Blue GI50 Low folate) was 8.8 ± 1.6 nM. For the same molecule, the GI50 (SNU-16 (gastric); [1]) was 1590 ± 1270 nM, the GI50 (SNU-16 (gastric); [2]) was 1.2 ± 1.2 nM and the GI50 (NCI-H1299; [1]) was 1590 nM. For the same molecule, the GI50 (NCI-H1299; [2]) was 4.8 nM, the GI50 (A101D (melenoma); [1]) was 3290 nM and the GI50 (A101D (melenoma); [2]) was 2.9 nM. It also gave a GI50 (NCI-H1993 (lung); [1]) of 2680 ± 2540 nM, a GI50 (NCI-H1993 (lung); [2]) of 3 ± 2.7 nM and a GI50 (HCT 116 (colon); [1]) of 2810 ± 1220 nM. The GI50 (HCT 116 (colon); [2]) was 2.2 ± 2.1 nM, the GI50 (MIA PaCa-2 (pancreas); [1]) was 4870 ± 4200 nM and the GI50 (MIA PaCa-2 (pancreas); [2]) was 1.6 ± 1 nM. The GI50 (MDA-MB-231 (mammary); [1]) was 85 ± 42 nM, the GI50 (MDA-MB-231 (mammary); [2]) was 0.49 nM and the GI50 (A549 (lung)) was 6 nM. For the same molecule, the GI50 (NCI-H1155 (lung); [1]) was 729 ± 215 nM, the GI50 (NCI-H1155 (lung); [2]) was 4.9 nM and the inhibition at 0.2 µM (DRAK1; @ 0.2 uM) was 4.41%. For the same molecule, the inhibition at 2 µM (DRAK1; @ 2 uM) was 13.9%, the inhibition at 20 µM (DRAK1; @ 20 uM) was 20.3% and the inhibition at 0.2 µM (RON; @ 0.2 uM) was -17.2%. For the same molecule, the inhibition at 2 µM (RON; @ 2 uM) was -11.8%, the inhibition at 20 µM (RON; @ 20 uM) was 33.9% and the inhibition at 0.2 µM (WEE1; @ 0.2 uM) was 1.15%. It also gave an inhibition at 2 µM (WEE1; @ 2 uM) of 7.31%, an inhibition at 20 µM (WEE1; @ 20 uM) of 14.2% and an inhibition at 0.2 µM (CDK1; @ 0.2 uM) of -4.14%. It also gave an inhibition at 2 µM (CDK1; @ 2 uM) of 4.5%, an inhibition at 20 µM (CDK1; @ 20 uM) of 5.99% and an inhibition at 0.2 µM (ABL; @ 0.2 uM) of -13.8%. It also gave an inhibition at 2 µM (ABL; @ 2 uM) of -14.6%, an inhibition at 20 µM (ABL; @ 20 uM) of -0.27% and an inhibition at 0.2 µM (MET; @ 0.2 uM) of -5.89%. For the same molecule, the inhibition at 2 µM (MET; @ 2 uM) was 8.99% and the inhibition at 20 µM (MET; @ 20 uM) was 17.8%.
